Like-named read-outs stand apart in the source and are kept apart here.

For data set [1], the system named is VGLUT3 (BON VGLUT3 cells). As to the kind of experiment: Confocal fluorescence labeling of BON cells expressing VGLUT3. The format is cell-based, human (BON cells). The following applies: for intensity of labeling in BON VGLUT3 cells relative to BON WT cells: FIG. 3, 20 minutes; for intensity of labeling in BON VGLUT3 cells relative to BON WT cells / fluorescence intensity in BON VGLUT3 cells relative to BON WT cells / labeling in cytoplasm of BON VGLUT3 cells: 37 °C; for fluorescence intensity in BON VGLUT3 cells relative to BON WT cells / labeling in cytoplasm of BON VGLUT3 cells: 1 h; for effect of LSP5 pretreatment on fluorescence intensity in BON VGLUT3 cells: pretreatment with LSP5-2157. How it is done: A “BON” cell line describes cells derived from human pancreatic carcinoma; the article by Ramet L. et al., published in J Neurosci, 2017, 37 (15), 4181-4199, describes such cells and the use thereof for the characterization of VGLUT type transporters.
(§1) The experiments are carried out with a BON cell line stably expressing VGLUT3 or a fluorescent VGLUT2 “VGLUT2-venus”. Wild non-transfected BON cells (“wild-type”, BON WT) are used as controls. The cells are cultured in F-12 Nutrient Mixture Ham medium (21765-029, Thermo Fisher Scientific) and Dulbecco's Modified Eagle's Medium High Glucose (DMEM HG, 31966021, Thermo Fisher Scientific; volume/volume), supplemented with 10% fetal calf serum (FCS, 12483012, Thermo Fisher Scientific) and 1% (volume/volume) of a mixture of streptomycin (10 mg/mL)/penicillin (10,000 U/mL) and […] an incubator at 37 °C under 5% CO2. For the transfected clones, the medium is enriched with 0.8 mg/mL Geneticin G418 sulfate (G418, 10131027, Thermo Fisher Scientific).
The cells are cultured in 25 cm^2 culture flasks. When the cells are at confluence, they are rinsed with sterile PBS 1× after aspiration of the medium, then incubated for five minutes at 37 °C with a solution of trypsin-EDTA (0.05% trypsin EDTA, 25300054, Thermo Fisher Scientific. The cell layer is then detached and the cells dissociated from each other. After addition of medium, the cell suspension is centrifuged for 5 minutes at 300 g, then the pellet is diluted 1:3 in order to be recultivated.
(§2) Two days before each experiment, after trypsinization of the cells from a culture flask, the cell suspension is seeded at 150,000 cells/well, in twelve-well plates on glass coverslips 19 mm in diameter. For observation, these coverslips are placed in a chamber allowing a hermetic fixation of the coverslip in the observation medium, Fluorobrite™ DMEM (A1896701, Thermo Fisher Scientific), a transparent medium.
(§3) Before each observation, the cells are incubated at 37 °C in the presence of fluorescent ligands, at previously determined concentrations. The effect of a pretreatment of BON cells with a specific inhibitor of VGLUTs, the substance LSP5-2157, is also performed to study the inhibitory effect of this substance on the labeling of BON cells with the fluorescent ligands of the invention.
(§4) The cells are observed in real time under an inverted confocal microscope, with a 63× objective in a room thermostated at 37 °C (Leica TCS SP5; cellular imaging platform of the Paris-Seine Institute of Biology). The studied fluorescent molecules emit in the blue, the cells are excited at 405 nm.
(§5) FIG. 2 illustrates the observation and quantification of the BON cells under a confocal microscope, and the inhibition of the fluorescent signal by a pretreatment of the cells with the specific VGLUT inhibitor, LSP5-2157. […] The images are presented in negative. D,H,L and P: Quantification of the treatment effect.
Different acquisitions of cells are carried out using a confocal microscope. […] Statistical analysis: Kruskal-Wallis test followed by Dunn's post-hoc test, NS: non-significant, *p<0.01; ***p<0.0001.
FIG. 3 illustrates the observation and quantification of BON cells using a confocal microscope. Wild-type cells (BON WT) or VGLUT3-expressing cells (BON VGLUT3) are incubated with different fluorescent ligands referenced: L8, YL151, D04, C07, C05, B09, G02, F11. After treatment with fluorescent ligands for 20 minutes at 37 °C, a fluorescent labeling is visible in BON cells. The effect of the treatment is analyzed by quantifying the fluorescence intensity in each cell type. […] Statistical analysis: Mann Whitney test, NS: non-significant, **p=0.0042; ***p<0.0001.

Data set [2] is described as follows: Fluorimetry: absorption and emission spectra, Stokes shift, molar absorption coefficient, quantum efficiency. It is filed as physicochemical. On the set-up: λmax abs / λmax em: unit not given here; key to Stokes shift: λmaxem − λmaxabs (emission peak minus absorption peak). The following applies: for Stokes shift: λmaxem-λmaxabs; for ε (molar absorption coefficient) / φ (quantum efficiency): coumarin-343 as reference. How it is done: The physicochemical properties of each ligand were determined thanks to fluorimetry. For each compound, a dilution range was performed and measurements were taken at 1 mM, 316 μM, 100 μM, 31.6 μM, 10 μM, 3.16 μM and 1μ. In 96-well fluorescence microplates, the absorbance and emission spectra of the ligands could be determined at each concentration thanks to a plate spectrophotometer (Tecan). The absorbance spectra are first measured for each compound so as to determine the maximum absorption wavelength (λmaxabs). The fluorescence, or emission, spectra are then determined after excitation of each compound at its λmaxabs, thus allowing obtaining the maximum fluorescence wavelength (λmaxem). Different parameters specific to each of the compounds were determined: • The Stokes shift: it corresponds to the difference between the peak of the absorption spectrum and the peak of the fluorescence spectrum, i.e.: λmaxem-λmaxabs • The molar absorption coefficient (ε): it reflects the capacity of the solutions to absorb light and is determined by the formula ε=A/(C.I)(A: optical density at λmaxabs, C: concentration of the compound, I: constant corresponding to the length of the optical path). ε is expressed in L·cm^−1·mol^−1. • The quantum efficiency (Φ): it represents the ratio of the number of photons emitted to the number of photons absorbed by the compound, i.e. the “probability” for an excited molecule to emit a photon. It takes a value between 0 and 1, 0 corresponding to a non-fluorescent molecule and 1 meaning that there is no de-excitation. Its value is determined thanks to the following formula where Abs: optical density at λmaxabs, AUC: area under the curve of the fluorescence spectrum, n: refractive index of the medium. In this formula, “m” refers to the studied molecule, and “r” to a reference fluorophore.
[formula] • of the fluorescence spectrum, n: refractive index of the medium). In this formula, “m” refers to the studied molecule, and “r” to a reference fluorophore.
The determination of ε and Φ requires the use of a reference fluorescent molecule for which these two parameters are known. Because of its coumarin-type fluorescent pattern, therefore close to those of the studied compounds, coumarin-343 (ε=44300 L·cm−1·mol−1 and Φ=0.63 in ethanol) was used as reference fluorophore. These two parameters were recalculated in the compound dilution medium (DMSO), and were used as a reference in the calculation of ε and Φ for each ligand.
In order to study the effect of a pH variation on the fluorescence intensity of the compounds, the measurements of the absorption and emission spectra were carried out in three different dilution media: • DMSO: pure dimethyl sulfoxide • Phosphate buffer pH 7.2 (0.2 M) • Phosphate buffer pH 5.5 (0.2 M)
FIG. 1 illustrates the absorption and emission spectra of the compound referenced L8, a carboxylic acid from the quinoline family. This is an example of the study carried out on each of the studied fluorophores. The graphic values determined thanks to these spectra are the λmaxabs, the λmaxem and the Stokes shift in each medium. […] The most diluted wells are preferred to see the emission peak of the compound.
The results which are obtained graphically thanks to the excitation and emission spectra and by calculation via the properties of coumarin 343 are grouped in Table 2 below.

The test system of the next data set is BON WT cells. As to the kind of experiment: Confocal fluorescence labeling of wild-type BON cells. It is filed as cell-based, human. Conditions: FIG. 2. On the procedure: as §1, §2, §3, §4, §5
The conditions of data set [3]: reference fluorophore, in ethanol; cited from earlier work.
Where [4] appears, read: pH 7 (phosphate buffer pH 7.2, 0.2 M).
The mark [5] stands for this setting: phosphate buffer pH 5.5 (0.2 M).

As for `Cc1cc(-c2ccc(/N=N/c3c(S(=O)(=O)O)cc4cc(S(=O)(=O)O)cc(N)c4c3O)c(C)c2)ccc1/N=N/c1c(S(=O)(=O)O)cc2cc(S(=O)(=O)O)cc(N)c2c1O` [trypan blue, reference compound], in data set [1], the “block of binding of novel ligands by reference inhibitor” value is reported as “block the binding of novel ligands”.
Consider `Nc1cc(S(=O)(=O)O)cc2cc(S(=O)(=O)O)c(/N=N/c3ccc(-c4ccc(/N=N/c5c(S(=O)(=O)O)cc6cc(S(=O)(=O)O)cc(N)c6c5O)cc4)cc3)c(O)c12` [LSP5-2157, reference compound], for which the “inhibition of fluorescent labeling by pre-incubation with VGLUT inhibitor” value in data set [1] (FIG. 2, against labeling by fluorescent ligands) was “significantly reduces the fluorescent labeling”. For the same compound, the “displacement of ligand binding in cell culture” value in data set [1] (reference VGLUT inhibitor) is given as “capable of displacing the ligand binding in cell culture”.
`CCOC(=O)c1cc(C(=O)OCC)c2cc(-c3ccc(-c4ccccc4)cc3)ccc2n1` [YL151, Diethyl 6-(biphenyl-4-yl) quinoline-2,4-dicarboxylate]: in data set [2] (DMSO), the λmax abs was 360, the λmax em was 420-570, the Stokes shift came to 60 and the “ε (molar absorption coefficient)” value was found to be 25747.1 L/cm/mol. Also, in data set [2] (DMSO), the “φ (quantum efficiency)” value came out at 0.11. In addition, the Stokes shift in data set [2] (pH 5.5) amounted to 85. Also, in data set [2] (setting [4]), the λmax abs is listed as 365 and the λmax em came out at 440. In addition, the Stokes shift in data set [2] (pH 7) stood at 75. Moreover, in data set [2] (setting [5]), the λmax abs was found to be 365 and the λmax em was 450. Further, the “intensity of labeling in BON VGLUT3 cells relative to BON WT cells” value in data set [1] is “increases significantly”.
Regarding `CCOC(=O)c1cc2cc(-n3cc(-c4ccc(-c5ccc(N)cc5)cc4)nn3)ccc2oc1=O` [B09, Ethyl-6-(4-(4′-amino-[1,1′-biphenyl]-4-yl)-1H-1,2,3-triazol-1-yl)-2-oxo-2H-chromene-3-carboxylate], in data set [2] (DMSO), the λmax abs amounted to 320, the λmax em came out at 407, the Stokes shift came out at 87 and the “ε (molar absorption coefficient)” value worked out at 48740.9 L/cm/mol. Moreover, the “φ (quantum efficiency)” value in data set [2] (DMSO) turned out to be 0.1. The Stokes shift in data set [2] (pH 5.5) turned out to be 47. Further, in data set [2] (setting [4]), the λmax abs was 365 and the λmax em was 412. The Stokes shift in data set [2] (pH 7) is 47. In data set [2] (setting [5]), the λmax abs is recorded as 365 and the λmax em stood at 412. Further, in data set [1] (FIG. 2), the “fluorescence intensity in BON VGLUT3 cells relative to BON WT cells” value is given as “significantly increases”, the “labeling in cytoplasm of BON VGLUT3 cells” value is “a punctiform labeling appears” and the “effect of LSP5 pretreatment on fluorescence intensity in BON VGLUT3 cells” value is “decreases the fluorescence intensity”. Moreover, the “intensity of labeling in BON VGLUT3 cells relative to BON WT cells” value in data set [1] is “increases significantly”. For the same compound, the “labeling in cytoplasm of BON WT cells” value in the data set on BON WT cells was “a weak and homogeneous labeling is detected”.
Regarding `CCOC(=O)c1cc2cc(-n3cc(-c4ccc(-c5ccc(N)cc5)cc4)nn3)c(OC)cc2oc1=O` [C07, Ethyl 6-(4-(4′-amino-[1,1′-biphenyl]-4-yl)-1H-1,2,3-triazol-1-yl)-7-methoxy-2-oxo-2H-chromene-3-carboxylate], in data set [2] (DMSO), the λmax abs is recorded as 335, the λmax em is listed as 410-430, the Stokes shift was 75 and the “ε (molar absorption coefficient)” value was found to be 64913.8 L/cm/mol. Moreover, in data set [2] (DMSO), the “φ (quantum efficiency)” value came to 0.05. Further, the Stokes shift in data set [2] (pH 5.5) is 50. Moreover, in data set [2] (setting [4]), the λmax abs is 365 and the λmax em was 400. Further, the Stokes shift in data set [2] (pH 7) is reported as 35. Also, in data set [2] (setting [5]), the λmax abs is 330 and the λmax em was found to be 380. Also, in data set [1] (FIG. 2), the “fluorescence intensity in BON VGLUT3 cells relative to BON WT cells” value was “significantly increases”, the “labeling in cytoplasm of BON VGLUT3 cells” value is reported as “a punctiform labeling appears” and the “effect of LSP5 pretreatment on fluorescence intensity in BON VGLUT3 cells” value was “do not significantly differ”. Further, the “intensity of labeling in BON VGLUT3 cells relative to BON WT cells” value in data set [1] was “increases significantly”. For the same compound, the “labeling in cytoplasm of BON WT cells” value in the data set on BON WT cells is “a weak and homogeneous labeling is detected”.
As for `O=C(O)c1cc2cc3c4c(c2oc1=O)CCCN4CCC3` [coumarin-343], in data set [3], the “Φ (quantum efficiency)” value is 0.63 and the “ε (molar absorption coefficient)” value is 44300 L/cm/mol.

The values above are taken from patent publication US20260374750A1, “LIGANDS SPECIFICALLY TARGETING VESICULAR GLUTAMATE TRANSPORTERS FOR SUPER-RESOLUTION IMAGING” (SORBONNE UNIVERSITÉ, priority 2021, published 2026).
